Results: paper PMC10545747, “Development of cyclopeptide inhibitors of cGAS targeting protein-DNA interaction and phase separation” (Nature Communications, 2023)
Values joined by “and” are separate entries in the source; they are usually repeats but may differ in a detail not shown here. Equal entries are not always repeated. Square brackets hold non-standard residues; d marks the D form. Peptide text beside a SMILES is read from it.

Tests used:
in vitro = conditions: mouse, Cell viability (Fig. S2e)
Description: (§1) Cell viability was measured by cell counting kit-8 (TargetMol) according to the manufacturer’s instructions. […]
(§2) (e-g) THP1 cells (e), L929 cells (f) and RAW264.7 cells (g) were exposed to the indicated doses of XQ2 for 48h, the cell viability was measured by CCK8 assay. Data are representative of three independent experiments in (a-g). (Data are presented as mean ± SD, n = 3 independent samples in (a-g), **p < 0.01, ***p < 0.001, ****p < 0.0001 using one-way ANOVA with Dunnett’s post hoc test).
(§3) Source data are provided as a Source Data file.

RAW264.7 cells = assay: in vitro; conditions: for Cell viability (Fig. S2e): RAW264.7 (48h)
Description: as §1, §2, §3

L929 cells = assay: in vitro; conditions: for Cell viability (Fig. S2e): L929 (48h)
Description: as §1, §2, §3

Trex1^-/- BMDMs = assay: qPCR of Ifnb1, Cxcl10, Il6 mRNA in Trex1-deficient macrophages; type: cell-based, mouse; parameters: key to Ifnb1 mRNA level (Fig. 7a) / Cxcl10 mRNA level (Fig. 7a) / Il6 mRNA level (Fig. 7a): fold change relative to WT BMDM group
Description: Fold changes are relative to WT BMDM group. p = 0.002 (Ifnb1); p = 0.008 (Cxcl10); p = 0.0005 (Il6). b Schematic representation illustrating the experimental design in the Trex1^-/- mice model of autoimmune diseases. c Survival curves of WT and Trex1^−/− mice treated with DMSO or XQ2B (10 mg/kg) every other day for 11 consecutive days (n = 10 mice per group). p = 0.0352. d WT mice (n = 6) or Trex1^-/- mice (n = 6) were injected intravenously with DMSO or 10 mg/kg XQ2B every other day for 7 consecutive days. Representative H&E-stained tissue sections from WT or Trex1^-/- mice treated with DMSO or XQ2B. The panels are at ×20 magnification. […] Scale bar, 50 μm. Data are representative of two independent experiments with similar results in (f), or three independent experiments in (a) or two independent experiments in (d, e). […] Source data are provided as a Source Data file.
The indicated cells were stimulated with either ISD (Sangon Biotech), HSV-1 (Provided by Dr. Zhengfan Jiang), HSV60mer (Sangon Biotech), SATE-cddA[70], 2’3’-cGAMP (Invivogen, Cat# tlrl-nacga23-1), ADU-S100 (MedChemExpress, Cat# HY-12885A) or Poly(I:C) (Invivogen, Cat# tlrl-pic) after XQ2 or XQ2B treatment. Total RNA was isolated from indicated cells that incubated with the drugs for indicated time or mice tissues by using NucleoZOL reagent (MACHEREY-NAGEL) according to the manufacturer’s instructions. The quantifications of mRNA levels were carried out by real-time PCR using a PerfectStart® Uni RT&qPCR Kit (TransGen Biotech) on the QuantStudio 5 qPCR machine (Applied Biosystems). Samples were carried out in triplicate and the target CT values were normalized to GAPDH CT values. Primers of qPCR used in this study can be found in Supplementary Table S2.
C57BL/6 6–8 weeks old wild type (WT) mice were purchased from Gempharmatech. C57BL/6 Trex1^+/- mice were purchased from Cyagen. Trex1^-/- mice were generated by further mating the male and female Trex1^+/- mice, and 8-week-old male Trex1^-/- mice were used in the experiment. Mice were housed in groups of up to 5 mice/cage at 18 °C − 24 °C ambient temperatures with 40–60% humidity. Mice were maintained on a 12 h light/ dark cycle 6 am to 6 pm. Food and water were available ad libitum. Femurs and tibias were removed from sex-matched mice of 6–8 weeks old, and the ends were clipped. Marrow was pushed from bones by using a syringe, and cell clumps were broken apart into cell particles by pipetting in PBS, and passed through a 70 μm cell strainer. Cells were resuspended in red blood cell lysis buffer (Solarbio) for 5 min after being centrifuged with 200 × g for 5 min, and were resuspended in cell culture media (DMEM) with an additional M-CSF (50 ng/ml) after centrifugation, and then were seeded into a 12-well plate. […]

Compound: CC(C)C[C@@H]1NC(=O)[C@H](CCCNC(=N)N)NC(=O)[C@H](C(C)C)NC(=O)[C@@H]2CCCN2C(=O)[C@@H](Cc2ccccc2)NC(=O)[C@H](CC(C)C)NC(=O)[C@H](CCCNC(=N)N)NC(=O)[C@H](C(C)C)NC(=O)[C@H](C)NC(=O)[C@@H](Cc2ccccc2)NC1=O [XQ2, Cyclo (LfAVRLfPVR)] (cyclo(L[dF]AVRL[dF]PVR))
- viability at 48 h, 0.23 µM (in vitro; L929 cells, L929 (48h), XQ2 0.23 μM): 108%
- viability at 48 h, 0.47 µM (in vitro; L929 cells, L929 (48h), XQ2 0.47 μM): 90.1%
- viability at 48 h, 0.94 µM (in vitro; L929 cells, L929 (48h), XQ2 0.94 μM): 83.6%
- viability at 48 h, 1.88 µM (in vitro; L929 cells, L929 (48h), XQ2 1.88 μM): 85.4%
- viability at 48 h, 3.75 µM (in vitro; L929 cells, L929 (48h), XQ2 3.75 μM): 90%
- viability at 48 h, 7.5 µM (in vitro; L929 cells, L929 (48h), XQ2 7.5 μM): 93.1%
- viability at 48 h, 15 µM (in vitro; L929 cells, L929 (48h), XQ2 15 μM): 86.3%
- viability at 48 h, 0.16 µM (in vitro; RAW264.7 cells, RAW264.7 (48h), XQ2 0.16 μM): 100%
- viability at 48 h, 0.31 µM (in vitro; RAW264.7 cells, RAW264.7 (48h), XQ2 0.31 μM): 102%
- viability at 48 h, 0.63 µM (in vitro; RAW264.7 cells, RAW264.7 (48h), XQ2 0.63 μM): 104%
- viability at 48 h, 1.25 µM (in vitro; RAW264.7 cells, RAW264.7 (48h), XQ2 1.25 μM): 104%
- viability at 48 h, 2.5 µM (in vitro; RAW264.7 cells, RAW264.7 (48h), XQ2 2.5 μM): 104%
- viability at 48 h, 5 µM (in vitro; RAW264.7 cells, RAW264.7 (48h), XQ2 5 μM): 102%
- viability at 48 h, 10 µM (in vitro; RAW264.7 cells, RAW264.7 (48h), XQ2 10 μM): 103%
- Cell viability (Fig. S2e) (RAW264.7 cells; XQ2 0.16 μM): 99.8864 and 99.6917
- Cell viability (Fig. S2e) (RAW264.7 cells; XQ2 0.31 μM): 112.786 and 105.825
- Cell viability (Fig. S2e) (RAW264.7 cells; XQ2 0.63 μM): 111.812 and 107.48
- Cell viability (Fig. S2e) (RAW264.7 cells; XQ2 1.25 μM): 113.808 and 104.608
- Cell viability (Fig. S2e) (RAW264.7 cells; XQ2 2.5 μM): 105.825 and 105.241
- Cell viability (Fig. S2e) (RAW264.7 cells; XQ2 5 μM): 107.821 and 104.219
- Cell viability (Fig. S2e) (RAW264.7 cells; XQ2 10 μM): 108.843 and 106.117
- cytotoxicity (RAW264.7 cells; RAW264.7, 48h): no cytotoxicity
- Cell viability (Fig. S2e) (L929 cells; XQ2 0.23 μM): 110.662 and 106.618
- Cell viability (Fig. S2e) (L929 cells; XQ2 0.47 μM): 92.2794 and 86.3971
- Cell viability (Fig. S2e) (L929 cells; XQ2 0.94 μM): 87.1324 and 89.2157
- Cell viability (Fig. S2e) (L929 cells; XQ2 1.88 μM): 84.4363 and 91.299
- Cell viability (Fig. S2e) (L929 cells; XQ2 3.75 μM): 94.6078 and 92.0343
- Cell viability (Fig. S2e) (L929 cells; XQ2 7.5 μM): 92.2794 and 92.1569
- Cell viability (Fig. S2e) (L929 cells; XQ2 15 μM): 85.049 and 94.6078
- cytotoxicity (L929 cells; L929, 48h): no cytotoxicity

Compound: CC(C)C[C@@H]1NC(=O)[C@H](CCCNC(=N)N)NC(=O)[C@H](C(C)C)NC(=O)[C@@H]2CCCN2C(=O)[C@@H](Cc2ccccc2)NC(=O)[C@H](CC(C)C)NC(=O)[C@H](CCCNC(=N)N)NC(=O)[C@H]([C@@H](C)O)NC(=O)[C@H](C)NC(=O)[C@@H](Cc2ccccc2)NC1=O [XQ2B] (cyclo([dF]ATRL[dF]PVRL))
- expression of Ifnb1, Cxcl10 and Il6 in Trex1^-/- BMDMs (Trex1^-/- BMDMs; 10 μM, 24 h): significantly suppressed the expression of Ifnb1, Cxcl10 and Il6 in Trex1^-/- BMDMs
- Cxcl10 mRNA level (Fig. 7a) (Trex1^-/- BMDMs; Trex1-/- BMDMs, XQ2B vs DMSO): 8.243 and 7.282 and 8.602
- Ifnb1 mRNA level (Fig. 7a) (Trex1^-/- BMDMs; Trex1-/- BMDMs, XQ2B vs DMSO): 2.99 and 2.308 and 2.77
- Il6 mRNA level (Fig. 7a) (Trex1^-/- BMDMs; Trex1-/- BMDMs, XQ2B vs DMSO): 7.711 and 7.588 and 8.111
